Results taken from patent US20230219978A1, “COMPOUND HAVING MACROCYCLIC STRUCTURE AND USE THEREOF” (SCINNOHUB PHARMACEUTICAL CO., LTD, priority 2020, published 2023).
pIC50: −log10 of the molar value.

Assays:
Assay type in all cases: biochemical
BTK C481S = biological target: T1, BTK C481S (Homo sapiens, UniProt Q06187, C481S); test: In vitro kinase activity assay (mobility shift assay), BTK C481S; details: ATP 90 μM, reaction time 30 min
T1 construct: purchased Carna 08-547
Protocol: (§1) The IC50 (half inhibitory concentration) values of the compounds were used as an indicator to evaluate the inhibitory effect of the compound on RET wild-type, RET mutant, TRKa, SRC, BTK and/or mutated BTK kinase.
(§2) Using the method of Mobility shift assay, the compounds were tested for inhibitory activity against the following kinases: RET wild type, RET mutant, TRKa, SRC, BTK and/or mutated BTK. The initial concentration of the test compound was 1000 nM, 3-fold dilution, 10 concentrations, detected in a well for each concentration.
(§3) 20 mM hydroxyethylpiperazineethanesulfonic acid (Hepes) (pH 7.5) buffer, 10 mM MgCl2, 1 mM ethylene glycol bis(aminoethyl ether)tetraacetic acid (EGTA), 0.02% polyoxyethylene lauryl ether (Brij35), 0.02 mg/ml […] (BSA), 0.1 mM Na3VO4, 2 mM dithiothreitol (DTT), 1% DMSO.
(§4) The test compounds were dissolved in 100% dimethyl sulfoxide (DMSO) system, and prepared as 10 mM for use, and stored in a nitrogen cabinet away from light.
(§5) • (1) Preparing 1× kinase reaction buffer. • (2) Preparation of compound concentration gradient: the initial concentration of the compounds was 1000 nM, which was diluted as 100-fold final concentration of solution in 100% dimethyl sulfoxide (DMSO) in a 384-well plate. The compound was accurately 3-fold diluted with the kinase buffer solution, 10 concentrations in total, and the final concentration was 0.0508 nM. The 100-fold final concentration of solution in 100% dimethyl sulfoxide (DMSO) was obtained by dilution in 384 source plate. The liquid separator Echo 550 was used to transfer 250 nl of 100-fold final concentration of compound to the target 384 well plate. 250 nl of DMSO was added to the positive and negative control wells. • (3) 2.5-fold final concentration of kinase solution was prepared by the 1× kinase buffer. • (4) 10 4, of 2.5-fold final concentration of kinase solution was added to the compound well and the positive control well, respectively; 10 4, of 1× kinase buffer was added to the negative control well. • (5) After centrifuging at 1000 rpm for 30 second, the reaction plate was shaken and mixed, followed by incubation at room temperature for 10 min. • (6) a mixed solution of 25/15-fold final concentration of adenosine triphosphate (ATP) and kinase substrate was prepared by 1× kinase buffer. • (7) The mixed solution (15 μL) of 25/15-fold final concentration of adenosine triphosphate (ATP) and substrate was added to initiate the reaction. • (8) 384-well plate was centrifuged at 1000 rpm for 30 second, shaken and mixed well, and then incubated at room temperature for 30-240 min. • (9) After stopping the kinase reaction, the plate was centrifugated at 1000 rpm for 30 second, shaken and mixed well. • (10)The conversion rate was read with Caliper EZ Reader.
(§6) wherein Conversion%_sample is the conversion rate reading of the sample; Conversion%_min: the mean value of negative control wells, representing the conversion rate reading of wells without enzymes; Conversion%_max: the mean value of positive control wells, representing the conversion rate reading of wells without compound inhibition.
(§7) The log value of concentration was taken as the X axis, and the percentage inhibition rate was taken as the Y axis. Graphpad 6.0 analysis software was used to fit the dose-response curve, so as to obtain the IC50 value of each compound on the enzyme activity

BTK = biological target: T2, BTK (Homo sapiens, UniProt Q06187); test: In vitro kinase activity assay (mobility shift assay), BTK; details: ATP 71 μM, reaction time 30 min
T2 construct: purchased Carna 08-180
Protocol: as §1, §2, §3, §4, §5, §6, §7

RET G810R = biological target: T3, RET G810R (Homo sapiens, UniProt P07949, G810R); test: In vitro kinase activity assay (mobility shift assay), RET G810R; details: ATP 201 μM, reaction time 4 h
T3 construct: purchased Proqinase 1724-0000-1
Procedure, shortened: (§8)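 Compounds: 10-point 3-fold series starting 1000 nM, preincubated 10 min RT with kinase; ATP + substrate then added, 30-240 min RT. Caliper conversion read, normalised to no-enzyme and no-compound controls, dose-response fit gives IC50.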

RET wt = biological target: T4, RET wt (Homo sapiens, UniProt P07949); test: In vitro kinase activity assay (mobility shift assay), RET wild type; details: ATP 16 μM, reaction time 60 min
T4 construct: purchased Carna 08-159
Procedure, shortened: as §8

TRKa = biological target: T5, TRKa (Homo sapiens, UniProt P04629); test: In vitro kinase activity assay (mobility shift assay), TRKa; details: ATP 47.8 μM, reaction time 30 min
T5 construct: purchased Carna 08-186
Protocol: as §1, §2, §3, §4, §5, §6, §7

T2 sequence (Q06187 whole entry): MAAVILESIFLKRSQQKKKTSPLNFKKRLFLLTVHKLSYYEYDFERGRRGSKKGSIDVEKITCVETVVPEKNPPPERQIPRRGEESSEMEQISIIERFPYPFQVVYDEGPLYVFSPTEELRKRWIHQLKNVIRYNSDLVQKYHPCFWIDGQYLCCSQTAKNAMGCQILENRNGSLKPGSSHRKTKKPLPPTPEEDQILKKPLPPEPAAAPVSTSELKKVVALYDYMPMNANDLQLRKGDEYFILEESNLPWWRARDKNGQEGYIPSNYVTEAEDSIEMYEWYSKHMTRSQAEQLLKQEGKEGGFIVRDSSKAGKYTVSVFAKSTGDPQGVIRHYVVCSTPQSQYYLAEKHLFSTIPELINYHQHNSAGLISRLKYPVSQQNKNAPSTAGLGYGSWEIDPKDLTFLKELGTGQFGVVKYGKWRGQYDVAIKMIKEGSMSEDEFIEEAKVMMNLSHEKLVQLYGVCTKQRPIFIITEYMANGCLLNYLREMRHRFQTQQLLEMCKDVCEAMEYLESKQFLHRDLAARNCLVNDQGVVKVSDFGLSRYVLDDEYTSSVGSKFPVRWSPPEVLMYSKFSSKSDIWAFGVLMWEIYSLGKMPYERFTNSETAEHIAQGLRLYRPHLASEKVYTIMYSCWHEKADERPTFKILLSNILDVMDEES
T1 sequence (Q06187 whole entry C481S): as the sequence (Q06187 whole entry) above, with C481S counted along it
T5 sequence (P04629 33-796): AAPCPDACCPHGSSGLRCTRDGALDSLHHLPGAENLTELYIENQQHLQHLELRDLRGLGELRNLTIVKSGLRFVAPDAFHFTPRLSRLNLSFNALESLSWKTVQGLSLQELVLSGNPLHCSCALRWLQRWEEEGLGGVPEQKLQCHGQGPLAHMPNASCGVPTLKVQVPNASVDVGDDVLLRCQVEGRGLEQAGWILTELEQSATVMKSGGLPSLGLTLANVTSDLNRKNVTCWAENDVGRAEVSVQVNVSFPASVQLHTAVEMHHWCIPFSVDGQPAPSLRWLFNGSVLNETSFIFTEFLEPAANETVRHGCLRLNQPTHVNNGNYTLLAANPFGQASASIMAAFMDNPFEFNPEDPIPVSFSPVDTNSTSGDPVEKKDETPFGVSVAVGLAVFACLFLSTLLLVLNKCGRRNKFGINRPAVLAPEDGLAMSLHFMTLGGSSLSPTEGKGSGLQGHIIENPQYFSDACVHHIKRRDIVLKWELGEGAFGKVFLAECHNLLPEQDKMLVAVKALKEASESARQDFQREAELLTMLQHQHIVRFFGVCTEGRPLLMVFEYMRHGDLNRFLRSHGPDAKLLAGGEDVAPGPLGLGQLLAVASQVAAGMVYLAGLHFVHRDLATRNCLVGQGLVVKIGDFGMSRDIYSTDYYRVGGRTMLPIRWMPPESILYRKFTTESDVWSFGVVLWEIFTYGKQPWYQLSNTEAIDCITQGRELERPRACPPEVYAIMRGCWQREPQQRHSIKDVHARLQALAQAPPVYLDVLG
T4 sequence (P07949 29-1114): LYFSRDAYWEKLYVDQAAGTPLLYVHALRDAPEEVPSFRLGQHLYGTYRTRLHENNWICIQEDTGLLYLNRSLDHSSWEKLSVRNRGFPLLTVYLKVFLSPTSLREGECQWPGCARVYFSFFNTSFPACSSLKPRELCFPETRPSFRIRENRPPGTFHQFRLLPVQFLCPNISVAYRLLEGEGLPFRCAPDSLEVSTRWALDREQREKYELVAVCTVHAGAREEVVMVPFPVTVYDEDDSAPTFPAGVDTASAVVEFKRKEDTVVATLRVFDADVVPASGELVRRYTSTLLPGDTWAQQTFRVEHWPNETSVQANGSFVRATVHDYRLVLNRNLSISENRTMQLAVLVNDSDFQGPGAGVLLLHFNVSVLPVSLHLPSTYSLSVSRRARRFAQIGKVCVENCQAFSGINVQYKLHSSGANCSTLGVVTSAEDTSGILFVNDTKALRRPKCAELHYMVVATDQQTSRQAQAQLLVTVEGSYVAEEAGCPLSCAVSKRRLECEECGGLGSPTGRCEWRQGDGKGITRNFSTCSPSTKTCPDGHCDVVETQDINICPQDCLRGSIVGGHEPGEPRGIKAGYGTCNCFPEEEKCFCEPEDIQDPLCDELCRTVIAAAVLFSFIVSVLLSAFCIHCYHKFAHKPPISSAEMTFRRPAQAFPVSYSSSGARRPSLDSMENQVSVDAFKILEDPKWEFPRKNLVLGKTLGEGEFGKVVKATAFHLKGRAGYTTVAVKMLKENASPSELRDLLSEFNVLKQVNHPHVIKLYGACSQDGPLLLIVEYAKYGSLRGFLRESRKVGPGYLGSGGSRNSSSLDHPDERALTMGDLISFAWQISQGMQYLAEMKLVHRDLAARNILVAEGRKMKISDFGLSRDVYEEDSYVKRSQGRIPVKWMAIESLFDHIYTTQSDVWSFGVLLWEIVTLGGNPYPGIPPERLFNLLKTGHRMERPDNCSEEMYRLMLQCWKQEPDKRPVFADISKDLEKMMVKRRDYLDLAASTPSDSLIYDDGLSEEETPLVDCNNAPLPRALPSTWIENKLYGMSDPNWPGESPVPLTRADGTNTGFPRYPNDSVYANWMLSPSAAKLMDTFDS
T3 sequence (P07949 29-1114 G810R): as the sequence (P07949 29-1114) above, with G782R counted along it

SMILES | pIC50 (BTK C481S) | pIC50 (BTK) | pIC50 (RET G810R) | pIC50 (RET wt) | pIC50 (TRKa)
C[C@H]1CNC(=O)c2cnn3cc(-c4ccc(F)cc4)c(nc23)NCc2cc(F)cnc2O1 [Compound 8, (S, 1^3E, 1^4E)-1^6-(4-fluorophenyl)-4^5-fluoro-6-methyl-5-oxa-2,8-diaza-1(5,3)-pyrazolo[1,5-a]pyrimidina-4(3,2)-pyridinacyclononaphan-9-one] |  |  |  | 7.89 | 5.91
C[C@H]1CNC(=O)c2cnn3cc(-c4ccc(Cl)cc4Cl)c(nc23)NCc2cc(F)cnc2O1 [Compound 21, (S, 1^3E, 1^4E)-1^6-(2,4-dichlorophenyl)-4^5-fluoro-6-methyl-5-oxa-2,8-diaza-1(5,3)-pyrazolo[1,5-a]pyrimidin-4(3,2)-pyridinacyclononaphan-9-one] |  |  |  | 8.23 | < 5.00
COc1cc(-c2cn3ncc4c3nc2NCc2cc(F)cnc2O[C@@H](C)CNC4=O)ccn1 [Compound 5, (S, 1^3E, 1^4E)-4^5-fluoro-1^6-(2-methoxypyridin-4-yl)-6-methyl-5-oxa-2,8-diaza-1(5,3)-pyrazolo[1,5-a]pyrimidin-4(3, 2)-pyridinacyclononaphan-9-one] |  |  |  | 6.63 | < 5.00
Cc1ccc(-c2cn3ncc4c3nc2NCc2cc(F)cnc2O[C@@H](C)CNC4=O)cc1 [Compound 11, (S, 1^3E, 1^4E)-1^6-(4-methylphenyl)-4^5-fluoro-6-methyl-5-oxa-2,8-diaza-1(5,3)-pyrazolo[1,5-a]pyrimidina-4(3,2)-pyridinacyclononaphan-9-one] |  |  |  | 7.82 | 6.03
C[C@H]1CNC(=O)c2cnn3cc(-c4cccc(F)c4)c(nc23)NCc2cc(F)cnc2O1 [Compound 7, (S, 1^3E, 1^4E)-1^6-(3-fluorophenyl)-4^5-fluoro-6-methyl-5-oxa-2,8-diaza-1(5,3)-pyrazolo[1,5-a]pyrimidina-4(3,2)-pyridinacyclononaphan-9-one] |  |  |  | 8.00 | 5.73
C[C@H]1CNC(=O)c2cnn3cc(-c4ccccc4)c(nc23)N[C@H](C)c2cc(F)cnc2O1 [Compound 26, (1^3E, 1^4E, 3R, 6S)-4^5-fluoro-3,6-dimethyl-1^6-phenyl-5-oxa-2,8-diaza-1(5,3)-pyrazolo[1,5-a]pyrimidin-4(3,2)-pyridinacyclononaphan-9-one] |  |  |  | 8.05 | < 5.00
C[C@H]1CNC(=O)c2cnn3cc(-c4ccccc4C(F)(F)F)c(nc23)NCc2cc(F)cnc2O1 [Compound 16, (S, 1^3E, 1^4E)-1^6-(2-trifluoromethylphenyl)-4^5-fluoro-6-methyl-5-oxa-2,8-diaza-1(5,3)-pyrazolo[1,5-a]pyrimidina-4(3,2)-pyridinacyclononaphan-9-one] |  |  |  | 6.27 | 5.86
O=C1N[C@H]2C[C@H](C2)Oc2ncc(F)cc2CNc2nc3c1cnn3cc2-c1ccccc1 [Compound 29] |  |  |  | 7.70 | < 5.00
C[C@H]1CNC(=O)c2cnn3cc(-c4ccc(=O)n(C)c4)c(nc23)NCc2cc(F)cnc2O1 [Compound 20, (S, 1^3E, 1^4E)-4^5-fluoro-6-methyl-1^6-(1-methyl-6-oxo-1,6-dihydropyridin-3-yl)-5-oxa-2,8-diaza-1(5,3)-pyrazolo[1,5-a]pyrimidin-4(3,2)-pyridinacyclononaphan-9-one] |  |  |  | < 5.00 | < 5.00
Cc1cccc(-c2cn3ncc4c3nc2NCc2cc(F)cnc2O[C@@H](C)CNC4=O)c1 [Compound 12, (S, 1^3E, 1^4E)-1^6-(3-methylphenyl)-4^5-fluoro-6-methyl-5-oxa-2,8-diaza-1(5,3)-pyrazolo[1,5-a]pyrimidina-4(3,2)-pyridinacyclononaphan-9-one] |  |  |  | 7.44 | < 5.00
C[C@H]1CNC(=O)c2cnn3cc(C4CC4)c(nc23)NCc2cc(F)cnc2O1 [Compound 23, (S, 1^3E, 1^4E)-1^6-cyclopropyl-4^5-fluoro-6-methyl-5-oxa-2,8-diaza-1(5,3)-pyrazolo[1,5-a]pyrimidin-4(3,2)-pyridinacyclononaphan-9-one] |  |  |  | 6.35 | < 5.00
C[C@H]1CNC(=O)c2cnn3c(N)c(-c4ccc5[nH]ccc5c4)c(nc23)NCc2cc(F)cnc2O1 [Compound 53, (S, 1^3E, 1^4E)-1^7-amino-4^5-fluoro-1^6-(1H-indo1-5-yl)-6-methyl-5-oxo-2,8-diaza-1(5,3)-pyrazolo[1,5-a]pyrimidin-4(3,2)-pyridinacyclononaphan-9-one] | < 6.00 | < 6.00 | < 6.00 | < 6.00 | 
C[C@H]1CNC(=O)c2cnn3cc(Nc4ccccc4)c(nc23)NCc2cc(F)cnc2O1 [Compound 25, (S, 1^3E, 1^4E)-4^5-fluoro-6-methyl-1^6-phenylamino-5-oxa-2,8-diaza-1(5,3)-pyrazolo[1,5-a]pyrimidina-4(3,2)-pyridinacyclononaphan-9-one] |  |  |  | 6.44 | < 5.00

The next molecules have a higher pIC50 (RET wt) than those just listed; values first:

pIC50 (BTK C481S) | pIC50 (BTK) | pIC50 (RET G810R) | pIC50 (RET wt) | pIC50 (TRKa) | SMILES
 |  |  | 8.28 | < 5.00 | Cc1ccccc1-c1cn2ncc3c2nc1NCc1cc(F)cnc1O[C@@H](C)CNC3=O [Compound 13, (S, 1^3E, 1^4E)-1^6-(2-methylphenyl)-4^5-fluoro-6-methyl-5-oxa-2,8-diaza-1(5,3)-pyrazolo[1,5-a]pyrimidina-4(3,2)-pyridinacyclononaphan-9-one]
 |  |  | 8.29 | 5.87 | C[C@H]1CNC(=O)c2cnn3cc(-c4ccccc4F)c(nc23)NCc2cc(F)cnc2O1 [Compound 6, (S, 1^3E, 1^4E)-1^6-(2-fluorophenyl)-4^5-fluoro-6-methyl-5-oxa-2,8-diaza-1(5,3)-pyrazolo[1,5-a]pyrimidina-4(3,2)-pyridinacyclononaphan-9-one]
7.37 | 6.46 | 7.16 | 8.41 |  | CC(C)OC(=O)Nc1ccc(-c2cn3ncc4c3nc2NCc2cc(F)cnc2O[C@@H](C)CNC4=O)c(Cl)c1 [Compound 45, iso-propyl 3-chloro-4-((S, 1^3E, 1^4E)-4^5-fluoro-6-methyl-9-oxo-5-oxa-aza-1(5,3)-pyrazolo[1,5-a]pyrimidin-4(3,2)-pyridinacyclononaphan-1^6-yl)phenyl) carbamate]
8.18 | 8.46 |  | 8.68 |  | Nc1c(-c2ccccc2)c2nc3c(cnn13)C(=O)NCCOc1ncc(F)cc1CN2 [Example 65, (1^3E, 1^4E)-1^7-amino-4^5-fluoro-1^6-phenyl-5-oxa-2,8-diaza-1(5,3)-pyrazolino[1,5-a]pyrimidin-4(3,2)-pyridinacyclononaphan-9-one]
8.72 | 9.00 |  | 8.80 |  | C[C@H]1CNC(=O)c2cnn3c(N)c(-c4ccc(F)cc4)c(nc23)NCc2cc(F)cnc2O1 [Compound 51, (S, 1^3E, 1^4E)-1^7-amino-1^6-(4-fluorophenyl)-4^5-fluoro-6-methyl-5-oxa-2,8-diaza-1(5,3)-pyrazolino[1,5-a]pyrimidin4(3,2)-pyridinacyclononaphan-9-one]
8.83 | 8.74 |  | 9.08 |  | C[C@H]1CNC(=O)c2cnn3c(N)c(-c4ccc(Cl)cc4)c(nc23)NCc2cc(F)cnc2O1 [Compound 50, (S, 1^3E, 1^4E)-1^7-amino-1^6-(4-chlorophenyl)-4^5-fluoro-6-methyl-5-oxa-2,8-diaza-1(5,3)-pyrazolino[1,5-a]pyrimidin-4(3,2)-pyridinacyclononaphan-9-one]
